Experimental data from ChEMBL document CHEMBL3797031, “Structure-activity relationship study of 4-substituted piperidines at Leu26 moiety of novel p53-hDM2 inhibitors” (Bioorg Med Chem Lett, 2016).

Biological target: Cytochrome P450 2C9 (Homo sapiens, UniProt P11712)
Assay: Inhibition of CYP2C9 (unknown origin)
Type: ADME
Conditions: not given

Chain of Cytochrome P450 2C9 (P11712 whole entry): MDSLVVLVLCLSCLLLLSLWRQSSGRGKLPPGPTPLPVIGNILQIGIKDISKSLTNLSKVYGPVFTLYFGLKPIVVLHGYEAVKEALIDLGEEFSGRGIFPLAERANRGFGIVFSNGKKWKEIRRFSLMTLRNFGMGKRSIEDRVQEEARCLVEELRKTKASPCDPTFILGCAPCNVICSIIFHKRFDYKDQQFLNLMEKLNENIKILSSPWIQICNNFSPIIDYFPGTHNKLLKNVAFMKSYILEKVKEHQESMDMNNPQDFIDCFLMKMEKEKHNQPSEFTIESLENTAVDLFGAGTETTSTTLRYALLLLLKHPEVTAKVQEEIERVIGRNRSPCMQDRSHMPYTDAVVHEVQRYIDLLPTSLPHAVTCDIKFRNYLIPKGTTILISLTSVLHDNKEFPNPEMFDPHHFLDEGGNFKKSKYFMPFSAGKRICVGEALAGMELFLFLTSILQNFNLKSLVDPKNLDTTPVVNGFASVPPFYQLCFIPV

Row | IC50 [nM] | Compound
1 | > 50000 | CCC[C@H]1N(C(=O)c2cnccc2C(F)(F)F)CCC[C@@]1(Oc1ccc(C(F)(F)F)cc1)C(=O)N1CCC(Oc2cccc(C(=O)O)n2)CC1

Biological target: T1, E3 ubiquitin-protein ligase Mdm2 (Homo sapiens, UniProt Q00987)
Assay: Binding affinity to human MDM2 by temperature dependent fluorescence assay
Conditions: not given

T1 sequence (Q00987 whole entry): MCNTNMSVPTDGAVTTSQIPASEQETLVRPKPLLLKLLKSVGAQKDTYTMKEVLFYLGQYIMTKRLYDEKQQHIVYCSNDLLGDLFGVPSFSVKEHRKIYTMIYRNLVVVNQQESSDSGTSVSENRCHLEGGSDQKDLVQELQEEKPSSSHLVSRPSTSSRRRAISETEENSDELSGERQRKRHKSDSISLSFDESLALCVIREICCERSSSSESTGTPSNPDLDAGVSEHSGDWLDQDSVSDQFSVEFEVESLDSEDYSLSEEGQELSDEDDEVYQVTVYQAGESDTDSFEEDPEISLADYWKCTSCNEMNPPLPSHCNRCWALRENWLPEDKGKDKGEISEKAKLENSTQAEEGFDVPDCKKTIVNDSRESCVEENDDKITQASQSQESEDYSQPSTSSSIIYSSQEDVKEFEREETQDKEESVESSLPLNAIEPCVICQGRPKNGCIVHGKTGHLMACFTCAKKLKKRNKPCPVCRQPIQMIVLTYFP

Row | Kd [nM] | Compound
2 | 500 | O=C(c1cnccc1C(F)(F)F)N1CCCC(Oc2ccc(C(F)(F)F)cc2)(C(=O)N2CCN(c3ccccn3)CC2)C1 (centres undefined)

System: not listed separately
Assay: Antiproliferative activity against p53 null human HCT116 cells
Type: functional, cell-based
Conditions: HCT-116

Row | Compound | IC50 [nM]
3 | CCC[C@H]1N(C(=O)c2cnccc2C(F)(F)F)CCC[C@@]1(Oc1ccc(C(F)(F)F)cc1)C(=O)N1CCC(Oc2cccc(C(=O)O)n2)CC1 | > 100000

System: not listed separately
Assay: Antiproliferative activity against human HCT116 cells expressing wild type p53
Type: functional, cell-based
Conditions: HCT-116

Row | Compound | IC50 [nM]
4 | CCC[C@H]1N(C(=O)c2cnccc2C(F)(F)F)CCC[C@@]1(Oc1ccc(C(F)(F)F)cc1)C(=O)N1CCC(Oc2cccc(C(=O)O)n2)CC1 | 8650

Biological target: Cytochrome P450 2D6 (Homo sapiens, UniProt P10635)
Assay: Inhibition of CYP2D6 (unknown origin)
Type: ADME
Conditions: not given

Chain of Cytochrome P450 2D6 (P10635 whole entry): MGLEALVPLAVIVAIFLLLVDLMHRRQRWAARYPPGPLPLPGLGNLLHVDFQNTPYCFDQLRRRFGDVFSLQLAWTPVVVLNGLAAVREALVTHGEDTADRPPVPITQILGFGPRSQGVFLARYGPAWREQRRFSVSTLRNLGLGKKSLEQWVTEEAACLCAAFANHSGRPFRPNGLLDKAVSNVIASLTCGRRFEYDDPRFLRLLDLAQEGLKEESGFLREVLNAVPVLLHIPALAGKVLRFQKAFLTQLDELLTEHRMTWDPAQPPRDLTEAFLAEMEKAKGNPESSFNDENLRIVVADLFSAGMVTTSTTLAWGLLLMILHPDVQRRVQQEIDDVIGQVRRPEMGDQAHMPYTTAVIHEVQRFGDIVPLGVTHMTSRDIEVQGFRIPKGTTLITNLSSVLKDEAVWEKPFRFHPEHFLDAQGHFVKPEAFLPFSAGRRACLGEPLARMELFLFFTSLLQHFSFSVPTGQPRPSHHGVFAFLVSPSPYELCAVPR

Row | IC50 [nM] | Compound
5 | > 50000 | CCC[C@H]1N(C(=O)c2cnccc2C(F)(F)F)CCC[C@@]1(Oc1ccc(C(F)(F)F)cc1)C(=O)N1CCC(Oc2cccc(C(=O)O)n2)CC1

Biological target: T1, E3 ubiquitin-protein ligase Mdm2
Assay: Binding affinity to human MDM2 assessed as inhibition of interaction with p53 by fluorescence polarization assay
Conditions: not given

Row | Compound | IC50 [nM]
6 | CCC[C@H]1N(C(=O)c2cnccc2C(F)(F)F)CCC[C@@]1(Oc1ccc(C(F)(F)F)cc1)C(=O)N1CCC(Oc2cc(C(N)=O)ccn2)CC1 | 8720
7 | CCC[C@H]1N(C(=O)c2cnccc2C(F)(F)F)CCC[C@@]1(Oc1ccc(C(F)(F)F)cc1)C(=O)N1CCC(Oc2cccc(C(=O)O)n2)CC1 | 42
8 | CCC[C@H]1N(C(=O)c2cnccc2C(F)(F)F)CCC[C@@]1(Oc1ccc(C(F)(F)F)cc1)C(=O)N1CCC(Sc2ccccc2)CC1 | 1980
9 | CCC[C@H]1N(C(=O)c2cnccc2C(F)(F)F)CCC[C@@]1(Oc1ccc(C(F)(F)F)cc1)C(=O)N1CCC(Oc2cccc(Cl)c2)CC1 | 2100
10 | CCC[C@H]1N(C(=O)c2cnccc2C(F)(F)F)CCC[C@@]1(Oc1ccc(C(F)(F)F)cc1)C(=O)N1CCC(Oc2ccc(C#N)cc2)CC1 | 1920
11 | CCC[C@H]1N(C(=O)c2cnccc2C(F)(F)F)CCC[C@@]1(Oc1ccc(C(F)(F)F)cc1)C(=O)N1CCC(Oc2cccnc2)CC1 | 267
12 | CCC[C@H]1N(C(=O)c2cnccc2C(F)(F)F)CCC[C@@]1(Oc1ccc(C(F)(F)F)cc1)C(=O)N1CCC(Oc2ncccn2)CC1 | 334
13 | CCC[C@H]1N(C(=O)c2cnccc2C(F)(F)F)CCC[C@@]1(Oc1ccc(C(F)(F)F)cc1)C(=O)N1CCC(Oc2ccc(CN)cn2)CC1 | 801
14 | CCC[C@H]1N(C(=O)c2cnccc2C(F)(F)F)CCC[C@@]1(Oc1ccc(C(F)(F)F)cc1)C(=O)N1CCC(Oc2ncccc2C(N)=O)CC1 | 4280
15 | CCC[C@H]1N(C(=O)c2cnccc2C(F)(F)F)CCC[C@@]1(Oc1ccc(C(F)(F)F)cc1)C(=O)N1CCC(Oc2ccc(C#N)cn2)CC1 | 492
16 | CCC[C@H]1N(C(=O)c2cnccc2C(F)(F)F)CCC[C@@]1(Oc1ccc(C(F)(F)F)cc1)C(=O)N1CCC(Oc2cccc(C(=O)OC)n2)CC1 | 392
17 | CCC[C@H]1N(C(=O)c2cnccc2C(F)(F)F)CCC[C@@]1(Oc1ccc(C(F)(F)F)cc1)C(=O)N1CCC(Cc2ccccc2)CC1 | 5830
18 | CCC[C@H]1N(C(=O)c2cnccc2C(F)(F)F)CCC[C@@]1(Oc1ccc(C(F)(F)F)cc1)C(=O)N1CCC(Oc2cccc(Br)n2)CC1 | 1860
19 | CCC[C@H]1N(C(=O)c2cnccc2C(F)(F)F)CCC[C@@]1(Oc1ccc(C(F)(F)F)cc1)C(=O)N1CCC(Oc2ccccn2)CC1 | 150
20 | CCC[C@H]1N(C(=O)c2cnccc2C(F)(F)F)CCC[C@@]1(Oc1ccc(C(F)(F)F)cc1)C(=O)N1CCC(Oc2ccccc2Cl)CC1 | 2760
21 | CCC[C@H]1N(C(=O)c2cnccc2C(F)(F)F)CCC[C@@]1(Oc1ccc(C(F)(F)F)cc1)C(=O)N1CCC(Cc2ccc(C)cc2)CC1 | 25800
22 | CCC[C@H]1N(C(=O)c2cnccc2C(F)(F)F)CCC[C@@]1(Oc1ccc(C(F)(F)F)cc1)C(=O)N1CCC(Oc2cccc(C)n2)CC1 | 5030

The next lines start with the values.

Row | IC50 [nM] | Compound
23 | 8710 | CCC[C@H]1N(C(=O)c2cnccc2C(F)(F)F)CCC[C@@]1(Oc1ccc(C(F)(F)F)cc1)C(=O)N1CCC(Oc2ccccc2C#N)CC1
24 | 224 | CCC[C@H]1N(C(=O)c2cnccc2C(F)(F)F)CCC[C@@]1(Oc1ccc(C(F)(F)F)cc1)C(=O)N1CCC(Oc2ccncc2)CC1
25 | 376 | CCC[C@H]1N(C(=O)c2cnccc2C(F)(F)F)CCC[C@@]1(Oc1ccc(C(F)(F)F)cc1)C(=O)N1CCC(Oc2ccncn2)CC1
26 | 1150 | CCC[C@H]1N(C(=O)c2cnccc2C(F)(F)F)CCC[C@@]1(Oc1ccc(C(F)(F)F)cc1)C(=O)N1CCC(Oc2cccc(OC)n2)CC1
27 | 2400 | CCC[C@H]1N(C(=O)c2cnccc2C(F)(F)F)CCC[C@@]1(Oc1ccc(C(F)(F)F)cc1)C(=O)N1CCC(Oc2ncccc2C#N)CC1
28 | 7740 | CCC[C@H]1N(C(=O)c2cnccc2C(F)(F)F)CCC[C@@]1(Oc1ccc(C(F)(F)F)cc1)C(=O)N1CCC(Oc2ncccc2CN)CC1
29 | 9360 | CCC[C@H]1N(C(=O)c2cnccc2C(F)(F)F)CCC[C@@]1(Oc1ccc(C(F)(F)F)cc1)C(=O)N1CCC(Sc2ccc(C)cc2)CC1
30 | 399 | CCC[C@H]1N(C(=O)c2cnccc2C(F)(F)F)CCC[C@@]1(Oc1ccc(C(F)(F)F)cc1)C(=O)N1CCC(Oc2cccc(C#N)c2)CC1
31 | 2360 | CCC[C@H]1N(C(=O)c2cnccc2C(F)(F)F)CCC[C@@]1(Oc1ccc(C(F)(F)F)cc1)C(=O)N1CCC(Oc2cccc(Cl)n2)CC1
32 | 111 | CCC[C@H]1N(C(=O)c2cnccc2C(F)(F)F)CCC[C@@]1(Oc1ccc(C(F)(F)F)cc1)C(=O)N1CCC(Oc2cccc(C(N)=O)n2)CC1
33 | 2040 | CCC[C@H]1N(C(=O)c2cnccc2C(F)(F)F)CCC[C@@]1(Oc1ccc(C(F)(F)F)cc1)C(=O)N1CCC(Oc2cccc(C(F)(F)F)n2)CC1
34 | 668 | CCC[C@H]1N(C(=O)c2cnccc2C(F)(F)F)CCC[C@@]1(Oc1ccc(C(F)(F)F)cc1)C(=O)N1CCC(Oc2cccc(C)c2)CC1
35 | 293 | CCC[C@H]1N(C(=O)c2cnccc2C(F)(F)F)CCC[C@@]1(Oc1ccc(C(F)(F)F)cc1)C(=O)N1CCC(Oc2cc(C#N)ccn2)CC1
36 | 686 | CCC[C@H]1N(C(=O)c2cnccc2C(F)(F)F)CCC[C@@]1(Oc1ccc(C(F)(F)F)cc1)C(=O)N1CCC(Oc2cccc(C#N)n2)CC1
37 | 114 | CCC[C@H]1N(C(=O)c2cnccc2C(F)(F)F)CCC[C@@]1(Oc1ccc(C(F)(F)F)cc1)C(=O)N1CCC(Oc2cccc(C(=O)NC)n2)CC1
38 | 1060 | CCC[C@H]1N(C(=O)c2cnccc2C(F)(F)F)CCC[C@@]1(Oc1ccc(C(F)(F)F)cc1)C(=O)N1CCC(Oc2cnccn2)CC1
39 | 173 | CCC[C@H]1N(C(=O)c2cnccc2C(F)(F)F)CCC[C@@]1(Oc1ccc(C(F)(F)F)cc1)C(=O)N1CCC(Oc2cccc(CN)n2)CC1
40 | 6600 | CCC[C@H]1N(C(=O)c2cnccc2C(F)(F)F)CCC[C@@]1(Oc1ccc(C(F)(F)F)cc1)C(=O)N1CCC(Oc2ccccc2C)CC1
41 | 4110 | CCC[C@H]1N(C(=O)c2cnccc2C(F)(F)F)CCC[C@@]1(Oc1ccc(C(F)(F)F)cc1)C(=O)N1CCC(Oc2ccc(Cl)cc2)CC1
42 | 4030 | CCC[C@H]1N(C(=O)c2cnccc2C(F)(F)F)CCC[C@@]1(Oc1ccc(C(F)(F)F)cc1)C(=O)N1CCC(Oc2cc(CN)ccn2)CC1
43 | 144 | CCC[C@H]1N(C(=O)c2cnccc2C(F)(F)F)CCC[C@@]1(Oc1ccc(C(F)(F)F)cc1)C(=O)N1CCC(Oc2ccc(C(N)=O)cn2)CC1
44 | 525 | CCC[C@H]1N(C(=O)c2cnccc2C(F)(F)F)CCC[C@@]1(Oc1ccc(C(F)(F)F)cc1)C(=O)N1CCC(Oc2cncnc2)CC1
45 | 2400 | CCC[C@H]1N(C(=O)c2cnccc2C(F)(F)F)CCC[C@@]1(Oc1ccc(C(F)(F)F)cc1)C(=O)N1CCC(Oc2ccccc2)CC1
46 | 8770 | CCC[C@H]1N(C(=O)c2cnccc2C(F)(F)F)CCC[C@@]1(Oc1ccc(C(F)(F)F)cc1)C(=O)N1CCC(Oc2ccc(C)cc2)CC1

Biological target: Cytochrome P450 3A4 (Homo sapiens, UniProt P08684)
Assay: Inhibition of CYP3A4 (unknown origin)
Type: ADME
Conditions: not given

Chain of Cytochrome P450 3A4 (P08684 whole entry): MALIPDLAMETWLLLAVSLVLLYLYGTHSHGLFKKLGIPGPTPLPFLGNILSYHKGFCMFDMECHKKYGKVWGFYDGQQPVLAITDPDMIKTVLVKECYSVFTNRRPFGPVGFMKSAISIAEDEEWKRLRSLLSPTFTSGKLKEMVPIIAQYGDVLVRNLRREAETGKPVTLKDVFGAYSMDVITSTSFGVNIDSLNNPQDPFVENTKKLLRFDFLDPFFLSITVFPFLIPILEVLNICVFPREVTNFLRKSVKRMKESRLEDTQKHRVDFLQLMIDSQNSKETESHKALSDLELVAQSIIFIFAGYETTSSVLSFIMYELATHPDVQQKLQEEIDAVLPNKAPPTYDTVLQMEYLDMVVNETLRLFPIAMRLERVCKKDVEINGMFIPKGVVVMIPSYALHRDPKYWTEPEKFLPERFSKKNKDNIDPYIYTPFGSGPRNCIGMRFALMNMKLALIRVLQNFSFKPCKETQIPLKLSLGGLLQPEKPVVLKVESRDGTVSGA

Row | IC50 [nM] | Compound
47 | > 50000 | CCC[C@H]1N(C(=O)c2cnccc2C(F)(F)F)CCC[C@@]1(Oc1ccc(C(F)(F)F)cc1)C(=O)N1CCC(Oc2cccc(C(=O)O)n2)CC1

System: SK-UT-1
Assay: Antiproliferative activity against human SK-UT-1 cells expressing mutant p53
Type: functional, cell-based
Conditions: not given

Row | IC50 [nM] | Compound
48 | > 100000 | CCC[C@H]1N(C(=O)c2cnccc2C(F)(F)F)CCC[C@@]1(Oc1ccc(C(F)(F)F)cc1)C(=O)N1CCC(Oc2cccc(C(=O)O)n2)CC1

System: not listed separately
Assay: Antiproliferative activity against human SJSA1 cells expressing wild type p53
Type: functional, cell-based
Conditions: SJSA-1

Row | Compound | IC50 [nM]
49 | CCC[C@H]1N(C(=O)c2cnccc2C(F)(F)F)CCC[C@@]1(Oc1ccc(C(F)(F)F)cc1)C(=O)N1CCC(Oc2cccc(C(=O)O)n2)CC1 | 4650
